Laboratory results from patent US10174401B2, “Methods for binding and precipitating gold using microbial-derived metallophores and their uses” (McMaster University, priority 2013, dated 2019).
*1 amine or outer side, *2 acyl side, *3 side chain or, on linkers, in order; H or OH if unused. Where a SMILES comes first, the peptide text is derived from it. [ ]: non-standard residue; d: D form. The star is where a group is joined. ξ: configuration not given here. NH(1-OH-2-oxopiperidin-3-yl) = O=C1C(N*)CCCN1O; ξOrn(N(OH)Ac) = CC(=O)N(O)CCCC(N)C(=O)O; ξAsp(βξ-Me) = CC(C(=O)O)C(N)C(=O)O; X2 = C/C=C(/N[*:1])C(=O)[*:2]; X1 = CC(N)C(O)C(C)C(=O)*

Key:
[1] = Time course of AuCl3 precipitation by delftibactins in absence and presence of FeCl3; settings: 5 mM AuCl3, compared with delftibactin A
Protocol: Twenty microliter reactions were set up as follows: i) water only, ii) 5 mM delftibactin A, iii) 5 mM AuCl3 iv) 5 mM FeCl3 v) 5 mM AuCl3+5 mM FeCl3 vi) 5 mM delftibactin B+5 mM AuCl3 vii) delftibactin B+5 mM AuCl3+5 mM FeCl3 viii) delftibactin B+5 mM FeCl3. Reactions were initiated by the addition of delftibactin and images were taken at time points indicated. After 2 h, reactions were serially diluted to 30 μM final concentration in ACM containing D. acidovorans ΔdelG diluted 1:1000 from an overnight culture. Optical density was monitored using a TECAN Sunrise™ microplate reader at 600 nm for 36 h. Results are a mean of three growth curves for each condition from a single representative experiment. As a second test of delftibactin protective capacity, D. acidovorans ΔdelG cells from an overnight culture were inoculated 1:1000 into 100 μL ACM in a 96-well plate containing 0 or 10 μM AuCl3, and then provided 0 or 100 μM delftibactin. Cultures were grown for 84 h at 250 rpm at 30° C. in a TECAN Sunrise™ microplate reader, measuring at 600 nm to assess growth. Results are a mean of three growth curves for each condition from a single representative experiment.

[2] = Gold-siderophore reactions (gold nanoparticle formation, gold-iron competition, LC-MS of supernatant); settings: for gold nanoparticle formation (visual inspection): 10 mM AuCl3 reacted with equimolar chelator
Protocol: Ten microliters of the AuCl3 stock solution was aliquoted into separate 200 μL microcentrifuge tubes, followed by the addition of 10 μL of each respective siderophore or metal chelator, where water was used as a control. The reaction was monitored over time and images were taken. After 2 h, a sample of the mixture was diluted 10× and analyzed by transmission electron microscopy (TEM) (see below). The remaining sample was centrifuged at 13,000 rpm for ten minutes. A 10 μL sample of the supernatant was diluted in 90 μL of water and subsequently analyzed by LC-MS. A control of unreacted siderophore and metal chelator of the same concentration was also analyzed for comparison. […] Reactions were monitored similarly. UV-vis spectrums were obtained using a Synergy 4 microplate reader (Biotek).

D. acidovorans ΔdelG [3] = assay: Gold protective comparison of delftibactin A and B (growth curves); assay type: cell-based, Delftia acidovorans; settings: 125 μM AuCl3 + 125 μM delftibactin
Protocol: Twenty microliter reactions were set up as follows: water only, 5 mM AuCl3, 5 mM AuCl3+delftibactin A, and 5 mM AuCl3+delftibactin B. Reactions were initiated with the addition of delftibactin A or B. After 2 h, reactions were serially diluted to 125 μM in ACM containing D. acidovorans ΔdelG diluted 1:1000 from an overnight culture. Optical density was monitored using a TECAN Sunrise™ microplate reader at 600 nm for 36 h. Results are a mean of three growth curves for each condition from a single representative experiment.

D. acidovorans = assay: Growth of D. acidovorans in presence of gold precipitate or AuCl3 (MIC); assay type: cell-based, Delftia acidovorans
Protocol: The assay was set up as follows: 50 μL of ddH2O containing 3.2, 1.6, 1.4, 1.2, 1.0, 0.8, 0.6, 0.4, and 0.2 mM delftibactin A was added in quadruplicate to wells within a 96-well plate. A 1.6 mM stock solution of AuCl3 was made and 50 μL was added to each well containing delftibactin A. No-delftibactin A and no-AuCl3 controls containing only water were also added to the 96-well plate in quadruplicate. This was incubated for 30 min at room temperature, during which time 10 mL of an overnight culture of D. acidovorans, grown in ACM was centrifuged and resuspended in 5 mL sterilized ddH2O. After 30 min incubation of AuCl3 with delftibactin, 100 μL of concentrated culture was added to each well. Final concentration of AuCl3 was 400 μM and the final concentrations of delftibactin A were 800, 400, 350, 300, 250, 200, 150, 100, and 50 μM. After 30 minutes of incubation at room temperature, mixtures were serial diluted and plated onto Nutrient Agar plates and incubated at 30° C. Colonies were counted after 24 h of growth. Results are shown as mean±s.d.; n=4. To assess whether D. acidovorans could grow in the presence of the gold precipitate, several milligrams of delftibactin A and AuCl3 were reacted 1:1 overnight and centrifuged, and washed once with water to concentrate the precipitate. The precipitate was resuspended in ddH2O at a final concentration of 100 mM, calculated using a molecular weight of 1227 g/mol, corresponding to a gold-delftibactin A species. D. acidovorans was grown overnight in a 96-well plate in 100 μL of ACM containing 20 μM to 10 mM gold precipitate or AuCl3. […] The MIC of AuCl3 was determined to be roughly 10 μM.

D. acidovorans ΔdelG [4] = assay: Delftibactin-mediated protection against gold toxicity (CFU after acute exposure); assay type: cell-based, Delftia acidovorans; settings: ΔdelG vs wild-type, 100 μM AuCl3, 30 min exposure, CFUs
Protocol: Cultures of D. acidovorans wild type and D. acidovorans ΔdelG were grown in deferrated ACM for 2 days at 30° C. In 96-well plates, 200 μL of wild type or mutant grown culture were incubated in the presence and absence of 100 μM AuCl3. At the same time, the mutant culture was also complemented with […] delftibactin (biological levels) in the presence of 100 μM AuCl3. After 30 minutes, cultures were serially diluted in water and plated on LB agar to determine the colony forming units of D. acidovorans after gold exposure. Results are shown as mean s.d.; n=4; Two-tailed student's t-test.

[5] = TEM imaging of siderophore-gold reactions; settings: after 2 h reaction with AuCl3
Protocol: Transmission electron microscopy imaging was performed with a JEOL JEM 1299 EX TEMSCAN transmission electron microscope (JEOL, Peabody, Mass., USA) operated at an accelerating voltage of 80 kV. Sample preparation: a 2 μL drop of a diluted (10×) siderophore-gold reaction was deposited over a formvar-coated TEM grid, and was allowed to dry under ambient conditions before being imaged. Gold nanoparticle size distribution was determined using the software, ImageJ.

[6] = Exposure of acidobactin A to gold; settings: when exposed to gold

C/C=C(/NC(=O)CNC(=O)C(C)NC(=O)C(NC(=O)C(C)C(O)C(C)N)C(C)C(=O)O)C(=O)NC(CCCN(O)C(C)=O)C(=O)NC(C)C(=O)NC(CCCNC(=N)N)C(=O)NC1CCCN(O)C1=O (stereo not drawn) [delftibactin B] (X1-[ξAsp(βξ-Me)]AG[X2][ξOrn(N(OH)Ac)]AR-{NH(1-OH-2-oxopiperidin-3-yl)}; configuration not given here)
gold reduction efficiency [1]: less efficient in gold reduction
gold nanoparticle formation (visual inspection) [2]: rapidly undergo a characteristic blackening
detoxification / protection against AuCl3 toxicity (D. acidovorans ΔdelG [3]): decreased detoxification

[Cl][Au]([Cl])[Cl] [AuCl3]
concentration at which toxic (D. acidovorans; D. acidovorans): 10 µM
MIC of AuCl3 (D. acidovorans; D. acidovorans grown overnight in ACM, 96-well plate): roughly 10 μM
growth of D. acidovorans (D. acidovorans; overnight in ACM containing 20 μM to 10 mM gold precipitate or AuCl3): No growth
increase in sensitivity to gold toxicity in the ΔdelG strain (D. acidovorans ΔdelG [4]): 102.8 fold

O=C(O)CN(CCN(CC(=O)O)CC(=O)O)CC(=O)O [EDTA, ethylenediaminetetraacetic acid]
gold nanoparticle formation (visual inspection) [2]: fail to develop a similar effect even after prolonged exposure to gold ions

c1ccc(-c2ccccn2)nc1 [bipyridyl]
gold nanoparticle formation (visual inspection) [2]: fail to develop a similar effect even after prolonged exposure to gold ions

CC(C)(C1=N[C@@](C)(C(=O)O)CS1)[C@H](O)[C@@H]1CSC([C@H]2CSC(c3ccccc3O)=N2)N1 (stereo partly shown) [yersiniabactin, reference compound]
nanoparticles seen by TEM [5]: did not create any distinct nanoparticles
gold nanoparticle formation (visual inspection) [2]: does not generate substantial quantities of gold nanoparticles

CC(=O)N(O)CCCC[C@H](NC(=O)CC(O)(CC(=O)N[C@@H](CCCCN(O)C(C)=O)C(=O)O)C(=O)O)C(=O)O [aerobactin]
gold nanoparticle formation (visual inspection) [2]: fail to produce defined gold nanoparticles

O=C(N[C@H]1COC(=O)[C@@H](NC(=O)c2cccc(O)c2O)COC(=O)[C@@H](NC(=O)c2cccc(O)c2O)COC1=O)c1cccc(O)c1O [enterobactin]
gold nanoparticle formation (visual inspection) [2]: considerable gold nanoparticle formation
concentration of metallophore after AuCl3 exposure ([2]; LC-MS, 2 hr exposure, vs unreacted control): remained unchanged
reaction with gold after pre-exposure to / in presence of iron ([2]; equimolar FeCl3): reacts with gold to a similar extent as when iron is not present

CC1CC(=O)NC(CCCN(O)C=O)C(O)CC(=O)NC(C(C)O)C(=O)NC(CCCNO)C(=O)NC(CO)C(=O)NC(C(O)C(=O)O)C(=O)O1 (stereo not shown) [acidobactin A]
gold complexing [6]: shown the gold complexing phenomenon
